From patent publication US9249129B2, “Morpholino substituted urea derivatives as mTOR inhibitors” (CELLZOME LIMITED, priority 2010, dated 2016)

Assays:
Test in all cases: kinobeads assay with mass spectrometry detection of kinases (kinase selectivity profile)
Format in all cases: binding
kinases (kinome) [1] = target: T1, kinases (kinome) (Homo sapiens, UniProt P07948); details: LYN (TK), IPI00298625
T1 construct: determined in kinobeads assays with mass spectrometry detection of kinases as described previously; endogenous in cells; host or cells: cell lysate
Description: (§1) The protein kinase complement of the human genome (the kinome) was described previously (Manning et al., 2002. Science 298(5600):1912-1934). Sequence accession numbers are defined by the International Protein Index (IPI) (Kersey et al., 2004. Proteomics 4(7):1985-1988).

kinases (kinome) [2] = target: T2, kinases (kinome) (Homo sapiens, UniProt P16591); details: FER (TK), IPI00029263
T2 construct: determined in kinobeads assays with mass spectrometry detection of kinases as described previously; endogenous in cells; host or cells: cell lysate
Description: as §1

kinases (kinome) [3] = target: T3, kinases (kinome) (Homo sapiens, UniProt P51955); details: NEK2 (Other), IPI00021331
T3 construct: determined in kinobeads assays with mass spectrometry detection of kinases as described previously; endogenous in cells; host or cells: cell lysate
T3 sequence (P51955 1-445): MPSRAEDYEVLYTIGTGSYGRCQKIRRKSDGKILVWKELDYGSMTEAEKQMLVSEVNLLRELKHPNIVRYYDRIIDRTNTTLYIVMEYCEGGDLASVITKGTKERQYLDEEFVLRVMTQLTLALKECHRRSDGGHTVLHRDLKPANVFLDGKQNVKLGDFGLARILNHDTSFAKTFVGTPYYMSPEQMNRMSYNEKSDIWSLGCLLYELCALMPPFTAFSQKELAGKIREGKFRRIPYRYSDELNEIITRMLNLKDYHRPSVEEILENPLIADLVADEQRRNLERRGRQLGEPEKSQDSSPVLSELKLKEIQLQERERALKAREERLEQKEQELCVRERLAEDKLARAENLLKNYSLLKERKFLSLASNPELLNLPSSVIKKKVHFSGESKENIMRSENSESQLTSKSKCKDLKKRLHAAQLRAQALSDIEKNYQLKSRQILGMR
Description: as §1

kinases (kinome) [4] = target: T4, kinases (kinome) (Homo sapiens, UniProt Q6PHR2); details: ULK3 (Other), IPI00910978
T4 construct: determined in kinobeads assays with mass spectrometry detection of kinases as described previously; endogenous in cells; host or cells: cell lysate
T4 sequence (Q6PHR2 1-472): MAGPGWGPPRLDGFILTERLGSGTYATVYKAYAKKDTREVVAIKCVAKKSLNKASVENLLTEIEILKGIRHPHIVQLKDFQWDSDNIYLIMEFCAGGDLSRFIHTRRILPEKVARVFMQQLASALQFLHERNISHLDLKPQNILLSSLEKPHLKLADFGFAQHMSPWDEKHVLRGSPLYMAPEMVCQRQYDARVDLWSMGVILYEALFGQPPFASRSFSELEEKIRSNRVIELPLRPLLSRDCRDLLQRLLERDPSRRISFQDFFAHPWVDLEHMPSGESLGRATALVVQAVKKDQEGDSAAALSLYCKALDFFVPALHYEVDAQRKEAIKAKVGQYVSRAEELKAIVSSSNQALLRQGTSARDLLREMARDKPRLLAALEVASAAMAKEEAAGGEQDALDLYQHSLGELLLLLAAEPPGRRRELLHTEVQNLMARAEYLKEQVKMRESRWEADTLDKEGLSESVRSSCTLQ
Description: as §1

kinases (kinome) [5] = target: T5, kinases (kinome) (Homo sapiens, UniProt Q9Y2U5); details: MAP3K2 (STE), IPI00513803
T5 construct: determined in kinobeads assays with mass spectrometry detection of kinases as described previously; endogenous in cells; host or cells: cell lysate
T5 sequence (Q9Y2U5 1-619): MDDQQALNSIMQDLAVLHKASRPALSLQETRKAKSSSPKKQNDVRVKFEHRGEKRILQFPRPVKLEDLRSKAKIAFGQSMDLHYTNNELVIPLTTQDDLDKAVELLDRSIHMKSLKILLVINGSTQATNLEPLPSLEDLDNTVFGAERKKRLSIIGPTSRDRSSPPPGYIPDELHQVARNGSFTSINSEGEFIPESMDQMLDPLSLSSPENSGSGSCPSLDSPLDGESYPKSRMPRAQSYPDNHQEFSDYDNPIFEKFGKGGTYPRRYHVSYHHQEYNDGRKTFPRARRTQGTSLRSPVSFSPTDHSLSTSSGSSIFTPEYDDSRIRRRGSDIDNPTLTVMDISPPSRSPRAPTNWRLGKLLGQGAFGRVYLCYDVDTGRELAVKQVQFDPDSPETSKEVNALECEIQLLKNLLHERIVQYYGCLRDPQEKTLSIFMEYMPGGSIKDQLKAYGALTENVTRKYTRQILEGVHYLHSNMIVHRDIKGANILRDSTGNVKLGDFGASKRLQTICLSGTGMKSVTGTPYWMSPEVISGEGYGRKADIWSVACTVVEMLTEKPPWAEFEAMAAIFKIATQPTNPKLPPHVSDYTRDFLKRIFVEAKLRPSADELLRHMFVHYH
Description: as §1

kinases (kinome) [6] = target: T6, kinases (kinome) (Homo sapiens, UniProt Q9Y4K4); details: KHS1 (STE), IPI00294842
T6 construct: determined in kinobeads assays with mass spectrometry detection of kinases as described previously; endogenous in cells; host or cells: cell lysate
Description: as §1

kinases (kinome) [7] = target: T7, kinases (kinome) (Homo sapiens, UniProt Q9BQI3); details: HRI (Other), IPI00328149
T7 construct: determined in kinobeads assays with mass spectrometry detection of kinases as described previously; endogenous in cells; host or cells: cell lysate
Description: as §1

T6 sequence (Q9Y4K4 whole entry): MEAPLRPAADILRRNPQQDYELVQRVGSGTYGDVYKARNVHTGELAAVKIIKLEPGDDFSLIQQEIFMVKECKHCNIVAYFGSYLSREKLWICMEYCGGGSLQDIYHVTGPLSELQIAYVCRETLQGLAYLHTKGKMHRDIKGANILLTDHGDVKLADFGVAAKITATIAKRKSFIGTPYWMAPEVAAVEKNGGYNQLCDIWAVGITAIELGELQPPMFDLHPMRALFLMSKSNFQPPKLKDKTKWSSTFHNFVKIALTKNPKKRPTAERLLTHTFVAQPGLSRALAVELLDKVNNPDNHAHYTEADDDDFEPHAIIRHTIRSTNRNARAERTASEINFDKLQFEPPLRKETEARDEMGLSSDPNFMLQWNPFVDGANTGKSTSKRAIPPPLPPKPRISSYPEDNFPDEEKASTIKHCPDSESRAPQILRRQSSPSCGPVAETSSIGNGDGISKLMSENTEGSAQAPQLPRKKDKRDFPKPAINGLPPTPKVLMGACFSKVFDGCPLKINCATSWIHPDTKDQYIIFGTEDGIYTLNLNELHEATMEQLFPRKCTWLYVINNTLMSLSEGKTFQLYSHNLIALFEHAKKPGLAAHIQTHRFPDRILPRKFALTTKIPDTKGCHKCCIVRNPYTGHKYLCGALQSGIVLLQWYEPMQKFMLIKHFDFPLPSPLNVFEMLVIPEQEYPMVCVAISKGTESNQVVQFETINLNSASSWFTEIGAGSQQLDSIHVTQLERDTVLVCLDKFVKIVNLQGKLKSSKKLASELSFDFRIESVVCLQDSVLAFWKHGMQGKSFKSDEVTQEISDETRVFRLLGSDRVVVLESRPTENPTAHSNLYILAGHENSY
T7 sequence (Q9BQI3 whole entry): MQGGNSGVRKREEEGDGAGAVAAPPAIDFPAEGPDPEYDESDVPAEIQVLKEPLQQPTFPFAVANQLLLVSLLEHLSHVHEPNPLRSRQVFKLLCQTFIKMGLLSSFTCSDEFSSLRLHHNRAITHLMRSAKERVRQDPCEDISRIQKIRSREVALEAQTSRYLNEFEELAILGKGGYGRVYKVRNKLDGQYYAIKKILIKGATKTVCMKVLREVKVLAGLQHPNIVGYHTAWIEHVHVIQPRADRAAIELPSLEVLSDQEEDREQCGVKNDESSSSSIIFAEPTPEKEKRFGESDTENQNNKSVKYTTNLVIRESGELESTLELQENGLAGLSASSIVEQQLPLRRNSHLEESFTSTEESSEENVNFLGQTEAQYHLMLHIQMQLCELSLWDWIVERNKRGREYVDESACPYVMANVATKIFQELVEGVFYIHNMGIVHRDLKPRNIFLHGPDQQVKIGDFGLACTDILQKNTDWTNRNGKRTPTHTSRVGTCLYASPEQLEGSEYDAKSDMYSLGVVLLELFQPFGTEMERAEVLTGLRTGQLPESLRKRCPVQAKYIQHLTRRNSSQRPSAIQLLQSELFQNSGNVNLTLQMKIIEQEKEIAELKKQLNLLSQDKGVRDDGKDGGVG
T2 sequence (P16591 whole entry): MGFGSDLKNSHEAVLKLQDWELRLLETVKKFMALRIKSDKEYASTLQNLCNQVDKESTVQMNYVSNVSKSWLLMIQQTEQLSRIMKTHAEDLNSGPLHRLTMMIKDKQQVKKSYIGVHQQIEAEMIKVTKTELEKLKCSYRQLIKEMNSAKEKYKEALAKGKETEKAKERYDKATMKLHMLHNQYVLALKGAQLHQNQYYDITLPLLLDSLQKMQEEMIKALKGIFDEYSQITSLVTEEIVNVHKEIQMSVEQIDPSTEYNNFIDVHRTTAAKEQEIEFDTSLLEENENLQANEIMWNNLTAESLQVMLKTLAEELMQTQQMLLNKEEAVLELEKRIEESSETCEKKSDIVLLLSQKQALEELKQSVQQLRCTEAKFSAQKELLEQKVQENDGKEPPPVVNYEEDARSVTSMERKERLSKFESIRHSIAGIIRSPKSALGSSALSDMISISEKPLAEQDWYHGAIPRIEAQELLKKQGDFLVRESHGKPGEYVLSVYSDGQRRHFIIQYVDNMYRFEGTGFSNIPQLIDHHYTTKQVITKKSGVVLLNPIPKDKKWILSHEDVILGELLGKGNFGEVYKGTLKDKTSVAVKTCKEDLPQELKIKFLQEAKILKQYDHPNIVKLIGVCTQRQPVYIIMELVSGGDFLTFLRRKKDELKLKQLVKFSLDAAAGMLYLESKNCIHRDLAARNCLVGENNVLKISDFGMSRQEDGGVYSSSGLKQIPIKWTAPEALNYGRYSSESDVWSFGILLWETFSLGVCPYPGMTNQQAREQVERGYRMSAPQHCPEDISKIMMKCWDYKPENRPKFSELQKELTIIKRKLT
T1 sequence (P07948 whole entry): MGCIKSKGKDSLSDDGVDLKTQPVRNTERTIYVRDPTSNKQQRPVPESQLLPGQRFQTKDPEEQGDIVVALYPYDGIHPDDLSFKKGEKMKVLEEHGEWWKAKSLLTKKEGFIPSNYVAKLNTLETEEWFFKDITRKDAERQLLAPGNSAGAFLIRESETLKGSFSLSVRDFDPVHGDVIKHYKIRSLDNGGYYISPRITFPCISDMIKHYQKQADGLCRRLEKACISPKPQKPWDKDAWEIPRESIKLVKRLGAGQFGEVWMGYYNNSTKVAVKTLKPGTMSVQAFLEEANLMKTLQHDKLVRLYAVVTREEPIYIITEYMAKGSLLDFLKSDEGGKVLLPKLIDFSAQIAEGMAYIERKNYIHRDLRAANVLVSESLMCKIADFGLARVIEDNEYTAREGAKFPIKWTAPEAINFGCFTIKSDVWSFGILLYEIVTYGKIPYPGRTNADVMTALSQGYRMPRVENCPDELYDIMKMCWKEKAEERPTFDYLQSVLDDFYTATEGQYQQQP

SMILES | IC50 (kinases (kinome) [1]) | IC50 (kinases (kinome) [2]) | IC50 (kinases (kinome) [3]) | IC50 (kinases (kinome) [4]) | IC50 (kinases (kinome) [5]) | IC50 (kinases (kinome) [6]) | IC50 (kinases (kinome) [7])
CCNC(=O)Nc1ccc(-c2cc(-c3ccccc3C#N)nc(N3CCOC[C@@H]3C)n2)cc1 [Example 8, (S)-1-(4-(6-(2-cyanophenyl)-2-(3-methylmorpholino)pyrimidin-4-yl)phenyl)-3-ethylurea] | > 10 µM | > 10 µM | > 10 µM | > 10 µM | > 10 µM | > 10 µM | > 10 µM
C[C@H]1COCCN1c1nc(-c2ccc(NC(=O)NC3CC3)cc2)cc(-c2cccnc2S(C)(=O)=O)n1 [Example 46, (S)-1-cyclopropyl-3-(4-(2-(3-methylmorpholino)-6-(2-(methylsulfonyl)pyridin-3-yl)pyrimidin-4-yl)phenyl)urea] | > 10 µM | > 10 µM | > 10 µM | > 10 µM | > 10 µM | > 10 µM | > 10 µM
C[C@H]1COCCN1c1nc(-c2ccc(NC(=O)N[C@H]3CCC[C@@H]3O)cc2)cc(-c2cc(F)ccc2S(C)(=O)=O)n1 [Example 76, 1-(4-(6-(5-fluoro-2-(methylsulfonyl)phenyl)-2-((S)-3-methylmorpholino)pyrimidin-4-yl)phenyl)-3-((1S,2S)-2-hydroxycyclopentyl)urea] | > 10 µM | > 10 µM | > 10 µM | > 10 µM | > 10 µM | > 10 µM | > 10 µM
C[C@H]1COCCN1c1cc(-c2ccccn2)nc(-c2ccc(NC(=O)NCCO)cc2)n1 [Example 43, (S)-1-(2-hydroxyethyl)-3-(4-(4-(3-methylmorpholino)-6-(pyridin-2-yl)pyrimidin-2-yl)phenyl)urea] | > 10 µM | > 10 µM | > 10 µM | > 10 µM | > 10 µM | > 10 µM | > 10 µM
C[C@H]1COCCN1c1nc(-c2ccc(NC(=O)NC3CC3)cc2)cc(-c2cc(F)ccc2S(C)(=O)=O)n1 [Example 40, (S)-1-cyclopropyl-3-(4-(6-(5-fluoro-2-(methylsulfonyl)phenyl)-2-(3-methylmorpholino)pyrimidin-4-yl)phenyl)urea] | > 10 µM | > 10 µM | > 10 µM | > 10 µM | > 10 µM | > 10 µM | > 10 µM

More lines, now with the values ahead:

IC50 (kinases (kinome) [1]) | IC50 (kinases (kinome) [2]) | IC50 (kinases (kinome) [3]) | IC50 (kinases (kinome) [4]) | IC50 (kinases (kinome) [5]) | IC50 (kinases (kinome) [6]) | IC50 (kinases (kinome) [7]) | SMILES
> 10 µM | > 10 µM | > 10 µM | > 10 µM | > 10 µM | > 10 µM | – | C[C@H]1COCCN1c1cc(-c2ccccc2S(C)(=O)=O)nc(-c2ccc(NC(=O)NC3CC3)cc2)n1 [Example 6, (S)-1-cyclopropyl-3-(4-(4-(3-methylmorpholino)-6-(2-(methylsulfonyl)phenyl)pyrimidin-2-yl)phenyl)urea]
> 10 µM | > 10 µM | > 10 µM | > 10 µM | > 10 µM | > 10 µM | > 10 µM | C[C@H]1COCCN1c1nc(-c2ccc(NC(=O)NC3CC3)cc2)cc(-c2ccccc2S(C)(=O)=O)n1 [Example 4, (S)-1-cyclopropyl-3-(4-(2-(3-methylmorpholino)-6-(2-(methylsulfonyl)phenyl)pyrimidin-4-yl)phenyl)urea]
